Experimental findings from patent publication US20060084704A1, “Methods and compositions for enhancing degradation of nuclear receptor transcription factors and uses thereof” (priority 2004, published 2006) are described below.

The target in one assay is T1, glucocorticoid receptor (Homo sapiens, UniProt P04150).
T1 construct: endogenous in cells; host or cells: LNCaP
T1 sequence (P04150 1-777): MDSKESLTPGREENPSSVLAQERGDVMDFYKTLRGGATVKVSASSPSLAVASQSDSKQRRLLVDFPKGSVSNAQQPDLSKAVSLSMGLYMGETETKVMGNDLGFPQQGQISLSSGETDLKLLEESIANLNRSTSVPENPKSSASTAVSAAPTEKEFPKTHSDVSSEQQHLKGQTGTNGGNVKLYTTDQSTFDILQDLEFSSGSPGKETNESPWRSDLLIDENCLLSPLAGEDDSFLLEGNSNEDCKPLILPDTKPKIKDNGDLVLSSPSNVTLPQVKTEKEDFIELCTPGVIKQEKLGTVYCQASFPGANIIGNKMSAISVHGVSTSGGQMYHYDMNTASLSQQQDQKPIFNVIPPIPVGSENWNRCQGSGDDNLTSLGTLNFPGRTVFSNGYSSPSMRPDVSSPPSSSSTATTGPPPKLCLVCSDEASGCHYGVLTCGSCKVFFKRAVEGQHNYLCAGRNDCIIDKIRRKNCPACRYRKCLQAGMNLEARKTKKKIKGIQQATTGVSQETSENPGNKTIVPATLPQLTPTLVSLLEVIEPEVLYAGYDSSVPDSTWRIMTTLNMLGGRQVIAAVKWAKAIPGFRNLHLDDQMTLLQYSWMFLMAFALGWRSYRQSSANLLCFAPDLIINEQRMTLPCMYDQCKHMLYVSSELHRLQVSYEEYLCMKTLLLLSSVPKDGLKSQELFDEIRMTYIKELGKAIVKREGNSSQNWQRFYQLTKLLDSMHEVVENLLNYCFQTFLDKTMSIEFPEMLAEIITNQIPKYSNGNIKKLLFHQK
Briefly: Western blot of LNCaP cell lysates, GR. Format: cell-based. Conditions: 1 or 2 micromolar, 24 hours, presence or absence of DHT. Here is the method:
Human prostate cancer LNCaP cells and T47D cells were plated at a density of 7×10^5 cells per 60 millimeter tissue culture dish in […] (RPMI) medium containing 10% FBS. The medium was changed to RPMI or DME medium containing 10% charcoal-stripped serum 24 hours later to deplete cellular androgens or estrogens. After another 24 hours, treatment with the test compounds began. The test dose of JC15 was 1 or 2 micromolar and the test does of JC9 was 1, 5 and 10 micromolar. LNCap cells also received dihydrotestosterone (DHT) (3 nanomolar). Control cells received a corresponding amount of the vehicle, dimethylsulfoxide (DMSO) (<0.04%) for an equivalent exposure time. Cells were incubated with JC15 for 24 or 48 hours, and were lysed in 250 microliters of 1×SDS/PAGE loading buffer. Approximately 40 micrograms of total cellular protein was loaded in each lane of a pre-cast gel (NuPAGE, Invitrogen). Protein separation and transfer were performed following the manufacturer's instructions.
For the prostate cell lysates, androgen receptor (AR) protein was visualized by incubating the resultant membranes with an anti-AR antibody (BD-PharMingen), followed by chemiluminescence detection (ECL Plus, Amersham). […] The resultant protein signals were quantified using densitometry and NIH ImageJ software.
(Immunoblotting shows a protein as a band on a membrane.)

In a further assay the target is T2, progesterone receptor (Homo sapiens, UniProt P06401).
T2 construct: endogenous in cells; host or cells: LNCaP
T2 sequence (P06401 1-933): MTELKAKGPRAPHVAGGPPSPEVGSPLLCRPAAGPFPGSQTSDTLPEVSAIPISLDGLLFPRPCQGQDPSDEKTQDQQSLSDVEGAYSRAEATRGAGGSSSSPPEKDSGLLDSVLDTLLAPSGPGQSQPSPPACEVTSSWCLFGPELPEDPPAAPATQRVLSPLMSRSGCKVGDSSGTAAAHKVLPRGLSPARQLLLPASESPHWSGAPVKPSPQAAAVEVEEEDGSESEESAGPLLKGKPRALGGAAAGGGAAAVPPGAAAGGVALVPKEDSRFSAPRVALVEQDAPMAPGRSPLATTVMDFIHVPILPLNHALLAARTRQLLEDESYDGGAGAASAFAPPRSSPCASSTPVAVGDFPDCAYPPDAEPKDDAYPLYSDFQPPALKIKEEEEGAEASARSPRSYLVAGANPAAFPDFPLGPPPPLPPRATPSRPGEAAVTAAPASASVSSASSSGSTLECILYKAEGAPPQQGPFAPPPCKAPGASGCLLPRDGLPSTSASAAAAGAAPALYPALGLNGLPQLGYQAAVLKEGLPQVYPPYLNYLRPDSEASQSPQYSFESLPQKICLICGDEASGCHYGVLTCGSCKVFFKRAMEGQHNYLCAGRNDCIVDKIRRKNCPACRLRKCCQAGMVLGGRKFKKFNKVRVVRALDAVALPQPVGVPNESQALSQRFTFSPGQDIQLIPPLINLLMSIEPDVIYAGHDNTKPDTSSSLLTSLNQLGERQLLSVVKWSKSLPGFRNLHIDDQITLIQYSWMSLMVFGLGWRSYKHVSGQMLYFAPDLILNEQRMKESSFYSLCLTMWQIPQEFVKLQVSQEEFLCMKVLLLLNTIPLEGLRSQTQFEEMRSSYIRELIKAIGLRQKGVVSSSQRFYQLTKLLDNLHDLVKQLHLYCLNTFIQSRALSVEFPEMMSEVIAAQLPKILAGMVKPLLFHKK
Briefly: Western blot of LNCaP cell lysates, progesterone receptor. Format: cell-based. Conditions: 1 or 2 micromolar, 24 hours, presence or absence of DHT.

Molecules are shown by their SMILES.

As for `CCOC(=O)CCC(C(=O)C=Cc1ccc(O)c(OC)c1)C(=O)C=Cc1ccc(O)c(OC)c1` (centres unmarked) [JC15, 7-(4-hydroxy-3-methoxyphenyl)-4-[3-(4-hydroxy-3-methoxyphenyl)acryloyl]-5-oxo-hept-6-enoic acid ethyl ester], the “cellular concentration of glucocorticoid receptor” value at glucocorticoid receptor is listed as “did not substantially affect”. Besides, at progesterone receptor, the “cellular concentration of progesterone receptor” value is on record as “decreased”.
